{"source": "paper PMC2615640", "about": "(Chemical research in toxicology, 2008)", "key": {"DPPH assay": {"assay": "DPPH assay", "type": "biochemical", "details": "for DPPH % FRS ± SD: pure compounds at screening concentration of 100 μM"}, "[1]": {"assay": "Crystal violet cytotoxicity assay", "type": "cell-based", "details": "mouse, Hepa1c1c7 murine hepatoma cells"}, "[2]": {"test_system": "antioxidant response element (ARE)", "assay": "ARE-luciferase activity assay in HepG2-ARE-C8 cells", "type": "cell-based", "details": "24 h treatment"}, "[3]": {"assay": "LC-MS-MS analysis of GSH conjugates", "details": "1 mM GSH, pH 8.0, 1 h, room temperature"}, "[4]": {"details": "dry state, 24 h at room temperature, from 98.6% freshly isolated; cited from earlier work"}, "[5]": {"details": "p.o. dose 500 mg/kg, rats; cited from earlier work"}, "[6]": {"test_system": "NAD(P)H:quinone oxidoreductase 1 (NQO1)", "assay": "In vitro NQO1 induction assay in Hepa-1c1c7 cells", "details": "Hepa1c1c7 cells; for NQO1 assay CD ± SD (concentration required for two-fold induction of NQO1): pure compounds, 48 h"}, "[7]": {"test_system": "NAD(P)H:quinone oxidoreductase 1 (NQO1)", "details": "cited from earlier work"}}, "note": "“Also recorded” adds a separate entry of the source. Marks after values point to notes of the source that are not given here."}
{"compound": "CCC/C=C1\\OC(=O)C2=C1CCC=C2", "note": "[Compound 1, Z-ligustilide]", "values": [{"measurement": "DPPH % FRS ± SD", "setting": "DPPH assay", "value": "< 50", "unit": "%"}, {"measurement": "IC50 at 48 h", "setting": "[1]", "value": "71.2 ± 4.1", "unit": "µM"}, {"measurement": "ARE-luciferase reporter activity", "setting": "[2]", "value": "increased ARE-luciferase reporter activity in a dose-dependent manner; also recorded: induced ARE reporter luciferase activity in a dose-dependent manner"}, {"measurement": "covalent modification of GSH / GSH conjugate formation", "setting": "[3]", "value": "covalently modified GSH; also recorded: formed GSH conjugates"}, {"measurement": "purity (GC-MS) after degradation", "setting": "[4]", "value": 58.1, "unit": "%"}, {"measurement": "GSH conjugate in plasma", "setting": "[5]", "value": "a GSH conjugate with monooxygenated ligustilide (mass 206) could be detected in the plasma"}, {"measurement": "NQO1 inducing activity (in words)", "setting": "[6]", "value": "respectable NQO1 inducing activities"}]}
{"compound": "CCC/C=C1\\OC(=O)c2ccccc21", "note": "[Compound 2, Z-butylidenephthalide]", "values": [{"measurement": "DPPH % FRS ± SD", "setting": "DPPH assay", "value": "< 50", "unit": "%"}, {"measurement": "IC50 at 48 h", "setting": "[1]", "value": "> 20", "unit": "µM"}, {"measurement": "NQO1 inducing activity (in words)", "setting": "[6]", "value": "did not induce NQO1 activity"}, {"measurement": "NQO1 assay CD ± SD (concentration required for two-fold induction of NQO1)", "setting": "[6]", "value": "> 20", "unit": "µM"}]}
{"compound": "CCC/C=C1\\OC(=O)C2=C1CC[C@@H](O)[C@@H]2O", "note": "[Compound 3, senkyunolide I]", "values": [{"measurement": "DPPH % FRS ± SD", "setting": "DPPH assay", "value": "< 50", "unit": "%"}, {"measurement": "NQO1 inducing activity (in words)", "setting": "[6]", "value": "weak NQO1 inducing properties"}, {"measurement": "NQO1 assay CD ± SD (concentration required for two-fold induction of NQO1)", "setting": "[6]", "value": "17.9 ± 0.6", "unit": "µM"}]}
{"compound": "CCC/C=C1\\OC(=O)C2=CC3CCC21[C@]1(OC(=O)c2ccccc21)[C@@H]3CCC", "note": "(stereo partly shown) [Compound 4, ansaspirolide]", "values": [{"measurement": "DPPH % FRS ± SD", "setting": "DPPH assay", "value": "< 50", "unit": "%"}, {"measurement": "CI (Chemopreventive Index: IC50/CD)", "setting": "[6]", "value": 3}, {"measurement": "NQO1 inducing activity (in words)", "setting": "[6]", "value": "potent inducing properties"}, {"measurement": "NQO1 assay CD ± SD (concentration required for two-fold induction of NQO1)", "setting": "[6]", "value": "0.9 ± 0.1", "unit": "µM"}]}
{"compound": "CCC/C=C1\\OC(=O)C23C=CCCC12C1(OC(=O)c2ccccc21)C3CCC", "note": "(stereo not shown) [Compound 5, sinaspirolide]", "values": [{"measurement": "DPPH % FRS ± SD", "setting": "DPPH assay", "value": "< 50", "unit": "%"}, {"measurement": "NQO1 inducing activity (in words)", "setting": "[6]", "value": "did not show any NQO1 inducing activity"}, {"measurement": "NQO1 assay CD ± SD (concentration required for two-fold induction of NQO1)", "setting": "[6]", "value": "> 20", "unit": "µM"}]}
{"compound": "COc1cc(/C=C/C(=O)OCC(O)C(OC)c2ccc(O)c(OC)c2)ccc1O", "note": "(stereo not shown) [Compound 6, angeliferulate]", "values": [{"measurement": "NQO1 inducing activity (in words)", "setting": "[6]", "value": "respectable NQO1 inducing activities; also recorded: high NQO1 inducing properties"}, {"measurement": "NQO1 assay CD ± SD (concentration required for two-fold induction of NQO1)", "setting": "[6]", "value": "7.5 ± 0.2", "unit": "µM"}]}
{"compound": "COc1cc(/C=C/C(=O)OCCc2ccc(O)cc2)ccc1O", "note": "[Compound 7, p-hydroxyphenethyl trans-ferulate]", "values": [{"measurement": "radical scavenging activity (in words)", "setting": "DPPH assay; DPPH", "value": "moderate radical scavenging activity"}, {"measurement": "DPPH % FRS ± SD", "setting": "DPPH assay", "value": "65 ± 1", "unit": "%"}, {"measurement": "NQO1 inducing activity (in words)", "setting": "[6]", "value": "respectable NQO1 inducing activities; also recorded: high NQO1 inducing properties"}, {"measurement": "NQO1 assay CD ± SD (concentration required for two-fold induction of NQO1)", "setting": "[6]", "value": "2.4 ± 0.3 ^f μM"}]}
{"compound": "C[S+]([O-])CCCCN=C=S", "note": "(stereo not shown) [sulforaphane]", "values": [{"measurement": "CI (chemopreventive index)", "setting": "[7]", "value": 26}]}
